Assay results taken from US5688818A, “Succinamic acid compound, production method thereof and use thereof” (Senju Pharmaceutical Co., Ltd., priority 1993, dated 1997).

Assays:
[1] = tested on: sorbitol content in the tissues (erythrocytes, sciatic nerve, lens); assay: Inhibitory action on sorbitol accumulation in tissues of rats with experimental diabetes; format: in vivo, Sprague-Dawley rats; conditions: relative to control group = 100%; for Sorbitol accumulation (%) nerve: sciatic nerve
Experimental: 2) Inhibitory action on sorbitol accumulation in tissues of rats with experimental diabetes
Test Compounds: Compounds of Example 23 and 29 and EPALRESTAT (described in Japanese Patent Unexamined Publication No. 40478/1982)
Sprague-Dawley rats (male, 6 weeks old, 5-6 per group) were fasted for 18 hours and injected with streptozotocin (SIGMA, 60 mg/kg) via the tail vein under ether anesthesia to prepare rats with diabetes.
The test compounds were orally administered at 4, 8 and 24 hours after the injection of streptozotocin. EPALRESTAT was administered orally in the dose of 30 mg/kg and the compounds of Examples 23 and 29 were administered orally in the dose of 10 mg/kg as a 0. 5% carboxymethylcellulose suspension, respectively. During the administrations, the rats were raised under free access to feed and water and the sorbitol content in the tissues (erythrocytes, sciatic nerve, lens) was determined 3 hours after the final administration, according to the enzyme method of H. Y. Bergmeyer et al. [Methods of Enzymatic Analysis, vol. 3, 1323-1330 (1974)] with the use of SDH (sorbitol dehydrogenase) and NAD (β-nicotinamide adenine dinucleotide). The results are expressed in percent (%) relative to the value of a control group administered with a 0.5% carboxymethylcellutose solution (solvent) instead of the compound, which was taken as 100%.

aldose reductase = biological target: T1, aldose reductase (Sus scrofa, UniProt P80276); assay: Aldose reductase activity-inhibitory action; format: biochemical; conditions: pH 6.2, 25° C., 2 minutes, 3 mM dl-glyceraldehyde substrate, 0.1 mM NADPH, swine lens enzyme
T1 construct: swine lenses freeze-stored at -80° C. were homogenized with distilled water; from tissue; host or cells: swine lens (40% ammonium sulfate supernatant, dialyzed)
Experimental: 1) Aldose reductase activity-inhibitory action
That is, swine lenses freeze-stored at -80° C. were homogenized with distilled water and centrifuged at 10,000 G for 15 minutes. The supernatant was prepared into a 40% ammonium sulfate solution and subjected to centrifugation at 10,000 G for 10 minutes.
The activity of aldose reductase was determined by the above-mentioned method of S. Hayman et al. That is, the above-mentioned enzyme solution (25 μl) and a drug solution (25 μl) dissolved in 1% DMSO at various concentrations were added to a 40 mM phosphate buffer (200 μl, pH 6.2) containing, at final concentrations, 0.4M lithium sulfate, 0. 1 mM NADPH (reduced type nicotinamide adenine dinucleotide phosphate) and 3 mM dl-glyceraldehyde as a substrate.
The test drug number indicates the example number to be mentioned later.

Normal ICR mice = conditions: mouse, in vivo
Experimental: The acute toxicity (safety) of the single dose of the compound of the present invention was confirmed by the following test.
Normal ICR mice (male, 7 weeks old, 5 per group) were fasted for 18 hours and the compound (300 mg/kg) of Example 29 was orally administered as a 0.5% carboxymethylcellulose suspension. To the control group, a 0.5% carboxymethylcellulose solution alone was orally administered and observation was continued for 14 days thereafter, during which period the mice were allowed to take feed and water freely.

[2] = 10 mg/kg orally at 4, 8 and 24 hours after streptozotocin, * p < 0.01 Tukey
[3] = 30 mg/kg orally at 4, 8 and 24 hours after streptozotocin

IC50 (aldose reductase) [nM]	Structure (SMILES)	Sorbitol accumulation (%) erythrocytes [1, 2] [%]	Sorbitol accumulation (%) lens [1, 2] [%]	Sorbitol accumulation (%) nerve [1, 2] [%]	death case among the mice (Normal ICR mice)	Sorbitol accumulation (%) erythrocytes [1, 3] [%]	Sorbitol accumulation (%) lens [1, 3] [%]	Sorbitol accumulation (%) nerve [1, 3] [%]
13	CN(Cc1nc2c(F)c(F)cc(F)c2s1)C(=O)CCC(=O)O [Example 23, N-(4,5,7-Trifluorobenzothiazol-2-yl)methyl-N-methylsuccinamic acid]	6.3	69.5	4.2	–	–	–	–
21	CC(/C=C1\SC(=S)N(CC(=O)O)C1=O)=C\c1ccccc1 [EPALRESTAT, reference compound]	–	–	–	–	66.5	89.1	99.9
18	CCCCN(Cc1nc2c(F)c(F)cc(F)c2s1)C(=O)CCC(=O)O [Example 26, N-(4,5,7-Trifluorobenzothiazol-2-yl)methyl-N-butylsuccinamic acid]	–	–	–	–	–	–	–

Structure (SMILES)	IC50 (aldose reductase) [nM]	Sorbitol accumulation (%) erythrocytes [1, 2] [%]	Sorbitol accumulation (%) lens [1, 2] [%]	Sorbitol accumulation (%) nerve [1, 2] [%]	death case among the mice (Normal ICR mice)	Sorbitol accumulation (%) erythrocytes [1, 3] [%]	Sorbitol accumulation (%) lens [1, 3] [%]	Sorbitol accumulation (%) nerve [1, 3] [%]
O=C(O)CCC(=O)N(Cc1nc2c(F)c(F)cc(F)c2s1)C1CC1 [Example 29]	17	12.2	45.4	1.0	no death case	–	–	–
